Measurements as given in US9040713B2, “Methods of managing blood sugar levels and compositions related thereto” (EMORY UNIVERSITY, priority 2010, dated 2015).

Key:
[1] = molecular target: T1, GST-IRTK (Homo sapiens, UniProt P06213); assay: IR in vitro kinase assay (histone H2B phosphorylation); assay type: biochemical; details: different concentrations of compound
T1 construct: GST-tagged IRTK (GST-IRTK, a.a. 1011-1382); purchased Invitrogen
Method: Parental CHO cells were used as a negative control (bottom panel). The fluorescence-labeled cells were analyzed on flow cytometry. (B) DDN binds to IRTK. UV-visible spectra were scanned from 200 to 800 nm for IRTK fragment in the presence of DDN or its analogue. When DDN binds to IRTK, it elicits the absorption alteration at 560 and 602 nm. (C) DDN protects IRTK from proteolysis. GST-IRTK was subjected to limited trypsin digestion in the presence of DDN (50 μM), ATP-γ-S (5 μM) or both. The reaction mixture was resolved by SDS-PAGE, followed by silver staining (D) DDN increases IRTK activity in vitro.
Parental CHO cells were used as a negative control (Bottom panel). The fluorescence-labeled cells were analyzed on flow cytometry. (B) 4524-E7 protects IRTK from proteolysis. GST-IRTK was subjected to limited trypsin or chymotrypsin digestion in the presence of 4524-E7 (50 μM), ATPyS (5 μM) or both at 37° C. for 5 min. The reaction mixture was resolved by SDS-PAGE, followed by silver staining Cleaved fragments were asterisked. (C) 4524-E7 increases IRTK activity in vitro. Recombinant GST-IRTK, GST-IGFRTK, and GST-EGFRTK were incubated with different concentrations of 4524-E7 or 10 μM 2—NH2-NQ and the kinase activity was examined by monitoring the phosphorylation of histone H2B. (E) In vitro kinase activity of various IRTK/IGF-1R kinase hybrids. The GFP-tagged kinases were expressed in HEK293, immunoprecipitated and incubated with different concentrations of 4524-E7 as indicated. […] Expressions of the kinases were also verified (lower panel).
Recombinant GST-IRTK was incubate with 50 mM tris-HCl (pH7.4), 10 mM MgCl2, and 50 μM ATP with different concentration of compound for 15 min at 25° C. Histone H2B (0.35 μg/ml) and [γ32P]ATP (0.25 μCi/ul) were added and the samples were further incubated for 10 min. The sample was separated on a SDS-polyacrylamide gel and autoradiographed.

[2] = test system: ob/ob mice; assay: Intraperitoneal glucose tolerance test in ob/ob mice; assay type: in vivo, mouse; details: 5 mg/kg oral, glucose 2 g/kg i.p. 1 hour later
Method: Three-month-old mice were starved for 12 h and then orally administrated with vehicle (0.5% methylcellulose) or DDN (5 mg/kg). Cell lysates were prepared from liver and muscle tissues collected at 1 and 2 h after drug administration and analyzed by immunoprecipitation and immunoblotting. […] Three-month-old mice were starved for 12 h and then orally administrated with vehicle (0.5% methylcellulose) or DDN (5 mg/kg). Cell lysates were prepared from liver and muscle tissues collected at 1 and 2 h after drug administration and analyzed by immunoprecipitation and immunoblotting. (C) Hypoglycemic function of DDN in db/db mice. […] Blood glucose was monitored before and after drug administration at 1-hour intervals (*: P<0.05, **: P<0.01, n=5, Two-way ANOVA vs vehicle). […] Blood glucose was measured at 30-min intervals (*: P<0.05, **:P<0.01, n=5, Two-way ANOVA vs vehicle control).
(A) 4524-E7 provokes IR phosphorylation in various tissues of mice. […] Cell lysates from liver, muscle, and WAT were prepared at 3, 4, and 5 h after drug administration and analyzed by immunoblotting. (B) Basal and insulin-stimulated hepatic glucose production rates were measured by hyperinsulinemic-euglycemic clamp. […] Blood glucose was monitored at different time points as indicated (n=8, *: P<0.05, two-way ANOVA). […] Blood glucose was monitored at different time points as indicated (n=5, *: P<0.05, two-way ANOVA). […]

T1 sequence (P06213 1011-1382): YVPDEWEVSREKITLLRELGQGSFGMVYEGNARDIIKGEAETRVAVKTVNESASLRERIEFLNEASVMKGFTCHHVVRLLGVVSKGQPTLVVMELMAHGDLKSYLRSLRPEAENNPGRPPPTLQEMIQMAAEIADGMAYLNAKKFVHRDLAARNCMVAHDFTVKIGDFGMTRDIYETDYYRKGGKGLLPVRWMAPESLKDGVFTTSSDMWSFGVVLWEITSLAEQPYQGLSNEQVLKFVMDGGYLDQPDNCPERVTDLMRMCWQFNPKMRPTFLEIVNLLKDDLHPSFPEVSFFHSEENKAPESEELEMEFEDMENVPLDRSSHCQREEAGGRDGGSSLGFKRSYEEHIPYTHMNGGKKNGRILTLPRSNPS

Structure (SMILES)	IRTK kinase activity (histone H2B phosphorylation) [1]	glucose tolerance [2]
O=C1c2ccccc2C(=O)C2SC(Nc3ccc(Cl)cc3)=NC12 (stereo not shown) [4524-E7, 2-((4-chlorophenyl)amino)naphtho[2,3-d]thiazole-4,9(3aH,9aH)-dione]	greatly enhanced	significant improvement of glucose tolerance
CC(=O)Oc1ccc(OC(C)=O)c2c1C(=O)C(Cl)=C(Cl)C2=O [DDN, 5,8-diacetyloxy-2,3-dichloro-1,4-naphthoquinone]	activated the recombinant IRTK to phosphorylate histone H2B	significant improvement in glucose tolerance
